We go through one molecule from patent publication US8187822B2, “Methods to identify modulators” (Givaudan S.A., priority 2007, dated 2012).

This test addresses T1, TAS2R46 (Homo sapiens, UniProt P59540).
T1 construct: The full length gene of human TAS2R44 was amplified by polymerase chain reaction (PCR) using gene-specific primers that span the entire coding region; RSS tag (first 45 amino acids of rat somatostatin receptor subtype 3) (N); expressed in transfected cells; host or cells: HEK293T/Gα16-gustducin 44 cells, transient transfection
T1 sequence (P59540 1-309): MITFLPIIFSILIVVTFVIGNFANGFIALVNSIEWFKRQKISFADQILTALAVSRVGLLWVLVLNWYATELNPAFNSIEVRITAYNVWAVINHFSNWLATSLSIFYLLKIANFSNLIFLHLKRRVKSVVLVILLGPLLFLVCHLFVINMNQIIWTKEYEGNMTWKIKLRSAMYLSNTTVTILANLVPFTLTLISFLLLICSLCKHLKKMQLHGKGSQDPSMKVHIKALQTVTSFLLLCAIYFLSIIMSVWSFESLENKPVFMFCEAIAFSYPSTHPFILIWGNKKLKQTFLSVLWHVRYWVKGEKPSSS
Put plainly: Fluo-4 calcium assay, HEK293T/Gα16-gustducin44 cells transiently expressing TAS2R46. Type of test: cell-based. The procedure: On day 0, the HEK293T/Gα16-gustducin 44 cells are plated in 96-well black wall, clear-bottom plates at a density of 14,000 cells per well and grown overnight in growth media (DMEM with 10% (v/v) heat-inactivated fetal bovine serum, 2 mM L-glutamine, 100 units/ml penicillin, 100 μg/ml streptomycin).
On day 1, the media is changed to an antibiotic-free and serum-free DMEM.
The cells are transfected with Lipofectamine 2000 (Invitorgen) according to the manufacturers recommendations.
Per well of a 96-well plate, 150 ng of vector DNA (SABTR expression vectors or TAS2R16 expression vector from example 1) is diluted in 12.5 μl of DMEM. In a second tube, 0.3 μl of Lipofectamine 2000 is diluted in 12.5 μl of DMEM and incubated for 5 min at room temperature. After the 5 min, both solutions are mixed and incubated for 20 min at RT. The growth medium in the plate is exchanged by 50 μl of DMEM and 25 μl of the lipofectamine/DNA mixture is incubated on the cells for 3-4 hours at 37° in a humidified atmosphere. This mixture is then replaced with an antibiotic-free, serum-containing DMEM.
24 hours post transfection, the cells are used in the Fluo-4 Calcium Assay described in Example 3.
At day 0, the HEK293T cell line expressing Gα16-gustducin44 and a TAS2R bitter taste receptor formed as described in examples 2b or 2c was seeded in antibiotic-free growth medium (standard DMEM with 10% (v/v) heat-inactivated fetal bovine serum, 2 mM L-glutamine[…]) into black wall/clear bottom 96-well plates, coated with poly(ethylenimine) (0.005% v/v) at a concentration of 15,000 cells per well and incubated for 48 hours in humidified atmosphere (37° C., 5% CO2).
At the time of the assay, the growth medium was discarded and the cells were in humidified atmosphere (37° C., 5% CO2) for 1 hour with 50 μl of loading buffer consisting of 1.5 μM Fluo-4 AM and […] probenicid (Sigma-Aldrich, St. Louis, Mo., US) in DMEM.
Afterwards, the 96-well plate was washed 5 times with 100 μl of assay buffer (130 mM NaCl, 5 mM KCl, 10 mM HEPES, 2 mM CaCl2, and 5 mM dextrose, pH 7.4) per well, using an automated plate washer (BioTek). The plate was further incubated for 30 minutes at room temperature in the dark to allow for complete de-esterification of the Fluo-4. Afterwards the plate was washed 5 times with 100 μl of assay buffer per well, and reconstituted with 100 μl of assay buffer per well.
For assay reading, the plate was placed in a Fluorometric Imaging Plate Reader (FLIPR) (FLIPR-TETRA™, Molecular Devices, Sunnyvale, Calif., US), and receptor activation was initiated by addition of 100 μl of a twofold concentrated agonist stock solution (to give the desired agonist end concentration when added to the 100 microliter assay buffer volume), which was prepared in assay buffer.
Fluorescence was continuously monitored for 20 seconds to give a signal baseline (averaged to give F0) prior to agonist addition and for 120 seconds after agonist addition. The change in signal divided by F0 gives ΔF/F0 indicated in the table, with ΔF being the maximum signal occurring within the 120 seconds minus the minimum signal (occurring within the 120 seconds after agonist addition.
All data was collected from at least two independent experiments each carried out in triplicate.
The obtained calcium signals were corrected for the response of cells expressing only the G Protein α subunit (Gα16-gustducin44) and normalized to the fluorescence of cells prior to the stimulus using ΔF/F0 (Fmax−Fmin/F0).
The intracellular calcium response following addition of sucralose was determined in HK293T cell line stably expressing Gα16-gustducin44 and transiently expressing TAS2R46 formed as described in example 2b.

With `OC[C@H]1O[C@H](O[C@]2(CCl)O[C@H](CCl)[C@@H](O)[C@@H]2O)[C@H](O)[C@@H](O)[C@H]1Cl` [Sucralose, sucralose], the “calcium signaling in TAS2R46 cells, in words” value is “significant concentration-dependent increase in calcium signaling”. For the same molecule, the “TAS2R46 ΔF/F0” value (sucralose 0.3906 mM) came out at 0.041. Under “sucralose 0.7813 mM”, the “TAS2R46 ΔF/F0” value came out at 0.038. In addition, the “TAS2R46 ΔF/F0” value (sucralose 1.5625 mM) turned out to be 0.035. The “TAS2R46 ΔF/F0” value (sucralose 3.1250 mM) is on record as 0.036. Moreover, for the setting “sucralose 6.2500 mM”, the “TAS2R46 ΔF/F0” value amounted to 0.057. For the same molecule, under “sucralose 12.5000 mM”, the “TAS2R46 ΔF/F0” value is on record as 0.075. Moreover, the “TAS2R46 ΔF/F0” value (sucralose 25.0000 mM) worked out at 0.106. Also, the “TAS2R46 ΔF/F0” value (sucralose 50.0000 mM) was 0.171. Under “sucralose 100.0000 mM”, the “TAS2R46 ΔF/F0” value stood at 0.258.
